Data reported in patent US12677834B2, “Silver silicalite zeolite nanomaterials for reducing Candida auris biofilms” (Imam Abdulrahman Bin Faisal University, priority 2023, dated 2026).

What was measured:
planktonic C. auris = assay: Effect on planktonic C. auris by light microscopy; type: cell-based, Candida auris; settings: clade 3 (strain CA9), compared to clade 1 and clade 2; AgNO3 0.0250 to 0.0025 mg/mL
Protocol: The antifungal activity of the nanomaterial on planktonic C. auris strains was determined by using light microscopy examination. Briefly, the inoculum was adjusted to a final concentration of 10^6 cells mL^−1. […] Plates were incubated at 37° C. for 48 h. […] The mean value of the duplicates was recorded, and micrographs were taken. One-way ANOVA analysis was carried out to identify the significance.

Candida auris biofilm = assay: Biofilm CFU killing assay (96-well microtiter plate, 24 and 48 h); type: cell-based; settings: clade 3 (strain CA9), compared to clade 1 and clade 2; AgNO3 0.0250 to 0.0025 mg/mL
Protocol: C. auris strains, the clinical isolates, were used to study the effects of the nanomaterial on biofilm formation for 24 and 48 h. All analyses were performed with replicates, and mean values were considered. Initially, culture cells from preserved stock at -80° C. were revived by streaking onto Sabauraud dextrose agar (SDA) plates and incubating overnight at 37° C. From the revived plates, a loopful of the strains was inoculated into SDB and further incubated using an orbital shaker at 130 rpm and 37° C. for 24 and 48 h. The biofilm assay was carried out using the 96-well microtiter plate. The cells harvested from overnight SDB cultures were adjusted to a cell density of 10^7 CFU/mL and diluted. […] Post incubation, plates were manually counted and recorded for the number of cells. Later, the quantity of biofilm formation was determined using a colony-forming unit technique (CFU) and determined as per the following formula: A/B×100 (A is the total number of colonies after treatment and B is the number of cells in control). […] Later, the quantity of biofilm formation was determined using the CFU technique. […] Post incubation, plates were manually counted and recorded for the number of cells. Then, the quantity of biofilm formation was determined using the CFU technique and determined as per the following formula: CFU/mL=(Number of colonies×dilution factor)/volume of plated culture. […]

O=[N+]([O-])[O-].[Ag+] [AgNO3, silver nitrate]
inhibitory effect on the planktonic cells (planktonic C. auris): complete inhibitory effect
inhibitory effect on the biofilm (Candida auris biofilm): complete inhibitory effect
